{
  "source": "patent US12077503B2",
  "about": "“Substituted cyclic amides and their use as herbicides” (FMC CORPORATION, priority 2015, dated 2024)",
  "assay_type_in_all_cases": "in vivo",
  "key": {"[1]": {"tested_on": "waterplantain (common waterplantain, Alisma plantago-aquatica)", "experiment": "Test F flooded paddy test", "conditions": "Flood", "text": "(§1) Plant species in the flooded paddy test consisted of one stand of 9 or 10 water seeded rice seedlings (Rice, W. S. Jap, Oryza sativa cv. ‘Japonica—M202’ or Rice, W. S. Ind, ‘Indica’), and two stands of 3 or 4 transplanted rice seedlings (Oryza sativa cv. ‘Japonica—M202’), Monochoria (Monochoria vaginalis), sedge, umbrella (small-flower umbrella sedge, Cyperus difformis), hardstem bulrush (Scirpus juncoides), redstem (purple redstem, Ammannia coccinea), rice flatsedge (Cyperus iria), bearded sprangletop (Leptochloa fascicularis), barnyardgrass (Echinochloa crus-galli), waterplantain (common waterplantain, Alisma plantago-aquatica), and late watergrass (Echinochloa oryzicola) grown to the 2 to 2.5 leaf stage for testing. Potted plants were grown in a greenhouse with day/night temperature settings of 30/27° C., and supplemental balanced lighting was provided to maintain a 16-hour photoperiod. At time of treatment, test pots were flooded to 3 cm above the soil surface, treated by application of test compounds directly to the paddy water, and then maintained at that water depth for the duration of the test. Effects of treatments on rice and weeds were visually evaluated by comparison to untreated controls after 21 d. Plant response ratings, summarized in Table F, are based on a scale of 0 to 100 where 0 is no effect and 100 is complete control. A dash (-) response means no test result."}, "[2]": {"tested_on": "redstem (purple redstem, Ammannia coccinea)", "experiment": "Test F flooded paddy test", "conditions": "Flood", "text": "as §1"}, "[3]": {"tested_on": "water seeded rice seedlings (Rice, W. S. Jap, Oryza sativa cv. ‘Japonica—M202’)", "experiment": "Test F flooded paddy test", "set-up": "key: 0 = no effect, 100 = complete control", "conditions": "Flood", "text": "as §1"}, "[4]": {"tested_on": "Monochoria (Monochoria vaginalis)", "experiment": "Test F flooded paddy test", "set-up": "key: 0 = no effect, 100 = complete control", "conditions": "Flood", "text": "as §1"}, "[5]": {"tested_on": "barnyardgrass (Echinochloa crus-galli)", "experiment": "Test F flooded paddy test", "set-up": "key: 0 = no effect, 100 = complete control", "conditions": "Flood", "text": "as §1"}, "[6]": {"tested_on": "late watergrass (Echinochloa oryzicola)", "experiment": "Test F flooded paddy test", "set-up": "key: 0 = no effect, 100 = complete control", "conditions": "Flood", "text": "as §1"}, "[7]": {"tested_on": "bearded sprangletop (Leptochloa fascicularis)", "experiment": "Test F flooded paddy test", "set-up": "key: 0 = no effect, 100 = complete control", "conditions": "Flood", "text": "as §1"}, "[8]": {"tested_on": "sedge, umbrella (small-flower umbrella sedge, Cyperus difformis)", "experiment": "Test F flooded paddy test", "set-up": "key: 0 = no effect, 100 = complete control", "conditions": "Flood", "text": "as §1"}, "[9]": {"tested_on": "nutsedge, yellow (yellow nutsedge, Cyperus esculentus)", "experiment": "Test C postemergence", "conditions": "scale 0 to 100, 0 no effect, 100 complete control", "in_short": "(§2)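 Seeds in loam-sand soil treated preemergence, or plants in peat-based medium sprayed postemergence at 2–18 cm (1- to 4-leaf stage), with compound in a non-phytotoxic solvent mixture containing surfactant. Greenhouse-held 13–15 d, then visually rated against controls on a 0–100 scale (0 = no effect, 100 = complete control); dash = not tested.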"}, "[10]": {"tested_on": "wheat (winter wheat, Triticum aestivum)", "experiment": "Test C postemergence", "conditions": "scale 0 to 100, 0 no effect, 100 complete control", "in_short": "as §2"}, "[11]": {"tested_on": "blackgrass (Alopecurus myosuroides)", "experiment": "Test C postemergence", "conditions": "scale 0 to 100, 0 no effect, 100 complete control", "in_short": "as §2"}, "[12]": {"tested_on": "johnsongrass (Sorghum halepense)", "experiment": "Test C postemergence", "conditions": "scale 0 to 100, 0 no effect, 100 complete control", "in_short": "as §2"}, "[13]": {"tested_on": "ryegrass, Italian (Italian ryegrass, Lolium multiflorum)", "experiment": "Test C postemergence", "conditions": "scale 0 to 100, 0 no effect, 100 complete control", "in_short": "as §2"}, "[14]": {"tested_on": "pigweed (Amaranthus retroflexus)", "experiment": "Test C postemergence", "conditions": "scale 0 to 100, 0 no effect, 100 complete control", "in_short": "as §2"}, "[15]": {"tested_on": "waterhemp (common waterhemp, Amaranthus rudis)", "experiment": "Test C postemergence", "conditions": "scale 0 to 100, 0 no effect, 100 complete control", "in_short": "as §2"}, "[16]": {"tested_on": "velvetleaf (Abutilon theophrasti)", "experiment": "Test C postemergence", "conditions": "scale 0 to 100, 0 no effect, 100 complete control", "in_short": "as §2"}},
  "data": [
    {"smiles": "CN1C[C@H](c2ccc(F)c(F)c2)[C@@H](C(=O)Nc2cccc(F)c2F)C1=O", "note": "[Compound 639, (3S,4S)—N-(2,3-difluorophenyl)-4-(3,4-difluorophenyl)-1-methyl-2-oxo-3-pyrrolidinecarboxamide]", "values": [
      {"measurement": "Plant response rating: Waterplantain", "setting": "[1]; 32 g ai/ha", "result": 80},
      {"measurement": "Plant response rating: Waterplantain", "setting": "[1]; 64 g ai/ha", "result": 80},
      {"measurement": "Plant response rating: Waterplantain", "setting": "[1]; 125 g ai/ha", "result": 98},
      {"measurement": "Plant response rating: Waterplantain", "setting": "[1]; 250 g ai/ha", "result": 100},
      {"measurement": "Plant response rating: Redstem", "setting": "[2]; 32 g ai/ha", "result": 0},
      {"measurement": "Plant response rating: Redstem", "setting": "[2]; 64 g ai/ha", "result": 0},
      {"measurement": "Plant response rating: Redstem", "setting": "[2]; 125 g ai/ha", "result": 0},
      {"measurement": "Plant response rating: Redstem", "setting": "[2]; 250 g ai/ha", "result": 30},
      {"measurement": "Plant response rating: Rice, Water Seeded", "setting": "[3]; 32 g ai/ha", "result": 0},
      {"measurement": "Plant response rating: Rice, Water Seed.", "setting": "[3]; 64 g ai/ha", "result": 40},
      {"measurement": "Plant response rating: Rice, Water Seed.", "setting": "[3]; 125 g ai/ha", "result": 50},
      {"measurement": "Plant response rating: Rice, Water Seeded", "setting": "[3]; 250 g ai/ha", "result": 75},
      {"measurement": "Plant response rating: Monochoria", "setting": "[4]; 32 g ai/ha", "result": 65},
      {"measurement": "Plant response rating: Monochoria", "setting": "[4]; 64 g ai/ha", "result": 98},
      {"measurement": "Plant response rating: Monochoria", "setting": "[4]; 125 g ai/ha", "result": 100},
      {"measurement": "Plant response rating: Monochoria", "setting": "[4]; 250 g ai/ha", "result": 100},
      {"measurement": "Plant response rating: Barnyardgrass", "setting": "[5]; 32 g ai/ha", "result": 90},
      {"measurement": "Plant response rating: Barnyardgrass", "setting": "[5]; 64 g ai/ha", "result": 100},
      {"measurement": "Plant response rating: Barnyardgrass", "setting": "[5]; 125 g ai/ha", "result": 100},
      {"measurement": "Plant response rating: Barnyardgrass", "setting": "[5]; 250 g ai/ha", "result": 100},
      {"measurement": "Plant response rating: Watergrass, Late", "setting": "[6]; 32 g ai/ha", "result": 100},
      {"measurement": "Plant response rating: Watergrass, Late", "setting": "[6]; 64 g ai/ha", "result": 100},
      {"measurement": "Plant response rating: Watergrass, Late", "setting": "[6]; 125 g ai/ha", "result": 100},
      {"measurement": "Plant response rating: Watergrass, Late", "setting": "[6]; 250 g ai/ha", "result": 100},
      {"measurement": "Plant response rating: Sprangletop, Brdd.", "setting": "[7]; 32 g ai/ha", "result": 85},
      {"measurement": "Plant response rating: Sprangletop, Brdd.", "setting": "[7]; 64 g ai/ha", "result": 85},
      {"measurement": "Plant response rating: Sprangletop, Brdd.", "setting": "[7]; 125 g ai/ha", "result": 95},
      {"measurement": "Plant response rating: Sprangletop, Brdd.", "setting": "[7]; 250 g ai/ha", "result": 98},
      {"measurement": "Plant response rating: Sedge, Umbrella", "setting": "[8]; 32 g ai/ha", "result": 0},
      {"measurement": "Plant response rating: Sedge, Umbrella", "setting": "[8]; 64 g ai/ha", "result": 0},
      {"measurement": "Plant response rating: Sedge, Umbrella", "setting": "[8]; 125 g ai/ha", "result": 0},
      {"measurement": "Plant response rating: Sedge, Umbrella", "setting": "[8]; 250 g ai/ha", "result": 0},
      {"measurement": "Plant response rating, Nutsedge, Yellow", "setting": "[9]; 31 g ai/ha", "result": 0},
      {"measurement": "Plant response rating, Nutsedge, Yellow", "setting": "[9]; 62 g ai/ha", "result": 0},
      {"measurement": "Plant response rating, Nutsedge, Yellow", "setting": "[9]; 125 g ai/ha", "result": 0},
      {"measurement": "Plant response rating, Nutsedge, Yellow", "setting": "[9]; 250 g ai/ha", "result": 10},
      {"measurement": "Plant response rating, Wheat", "setting": "[10]; 31 g ai/ha", "result": 0},
      {"measurement": "Plant response rating, Wheat", "setting": "[10]; 62 g ai/ha", "result": 0},
      {"measurement": "Plant response rating, Wheat", "setting": "[10]; 125 g ai/ha", "result": 0},
      {"measurement": "Plant response rating, Wheat", "setting": "[10]; 250 g ai/ha", "result": 0},
      {"measurement": "Plant response rating, Blackgrass", "setting": "[11]; 31 g ai/ha", "result": 0},
      {"measurement": "Plant response rating, Blackgrass", "setting": "[11]; 62 g ai/ha", "result": 0},
      {"measurement": "Plant response rating, Blackgrass", "setting": "[11]; 125 g ai/ha", "result": 5},
      {"measurement": "Plant response rating, Blackgrass", "setting": "[11]; 250 g ai/ha", "result": 10},
      {"measurement": "Plant response rating, Johnsongrass", "setting": "[12]; 31 g ai/ha", "result": 0},
      {"measurement": "Plant response rating, Johnsongrass", "setting": "[12]; 62 g ai/ha", "result": 0},
      {"measurement": "Plant response rating, Johnsongrass", "setting": "[12]; 125 g ai/ha", "result": 0},
      {"measurement": "Plant response rating, Johnsongrass", "setting": "[12]; 250 g ai/ha", "result": 0},
      {"measurement": "Plant response rating, Ryegrass, Italian", "setting": "[13]; 31 g ai/ha", "result": 0},
      {"measurement": "Plant response rating, Ryegrass, Italian", "setting": "[13]; 62 g ai/ha", "result": 0},
      {"measurement": "Plant response rating, Ryegrass, Italian", "setting": "[13]; 125 g ai/ha", "result": 5},
      {"measurement": "Plant response rating, Ryegrass, Italian", "setting": "[13]; 250 g ai/ha", "result": 10},
      {"measurement": "Plant response rating, Pigweed", "setting": "[14]; 31 g ai/ha", "result": 10},
      {"measurement": "Plant response rating, Pigweed", "setting": "[14]; 62 g ai/ha", "result": 45},
      {"measurement": "Plant response rating, Pigweed", "setting": "[14]; 125 g ai/ha", "result": 40},
      {"measurement": "Plant response rating, Pigweed", "setting": "[14]; 250 g ai/ha", "result": 45},
      {"measurement": "Plant response rating, Waterhemp", "setting": "[15]; 31 g ai/ha", "result": 10},
      {"measurement": "Plant response rating, Waterhemp", "setting": "[15]; 62 g ai/ha", "result": 25},
      {"measurement": "Plant response rating, Waterhemp", "setting": "[15]; 125 g ai/ha", "result": 30},
      {"measurement": "Plant response rating, Waterhemp", "setting": "[15]; 250 g ai/ha", "result": 25},
      {"measurement": "Plant response rating, Velvetleaf", "setting": "[16]; 31 g ai/ha", "result": 35},
      {"measurement": "Plant response rating, Velvetleaf", "setting": "[16]; 62 g ai/ha", "result": 60},
      {"measurement": "Plant response rating, Velvetleaf", "setting": "[16]; 125 g ai/ha", "result": 50},
      {"measurement": "Plant response rating, Velvetleaf", "setting": "[16]; 250 g ai/ha", "result": 60}
    ]}
  ]
}
